Measurements published in US20120010178A1, “METHODS AND COMPOUNDS FOR TREATMENT OF NEURODEGENERATIVE DISORDERS” (PRESIDENT AND FELLOWS OF HARVARD COLLEGE, priority 2008, published 2012).
“Also recorded” adds a separate entry of the source.

Experiments:
SMN [1] = assay: High-content fibroblast screen for compounds that modulate SMN level; conditions: for SMN level in fibroblast screen (increase or decrease): human fibroblasts, 2-3 days with compound;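 for all read-outs here: Anti-SMN immunostaining with confocal imaging of nuclear and cytoplasmic SMN and gem counts, tested at 0.1, 1 and 10 uM, fold change relative to negative control wells on each plate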
Protocol: Human fibroblasts were incubated for 2-3 days with compounds from annotated collections. Cells were fixed and stained with an anti-SMN antibody. Confocal imaging was used to quantify SMN fluorescence in nucleus and cytoplasm and count Gems. Data were collected and subsequently analyzed by clustering compounds by suspected mechanism of action and chemical structure.
Following optimization of assay conditions on day 0, total of 500 human fibroblasts (GM09677 line) per well were seeded in 384-well plates, on day 3 they were treated with compounds (robot CyBio) from the annotated collections and on the 5 day plates were fixed and stained (robot MAPD) with an anti-SMN antibody and secondary antibody conjugated with 448 fluorophore (FIG. 19a). Compounds from the libraries were added in duplicate at three final concentrations of 10, 1 and 0.1 uM.
SMN detection was done on the automated confocal microscope Opera PerkinElmer with separate fluorescent exposures to 488 nM laser for and a UV light source to detect nuclei stained with Hoechst 33258 with a 20× objective.
After scanning on the Opera, an XML file extraction workflow, designed with Inforsense KDE, was used to assemble the data from multiple replicate plates of each HCS experiment including the quantitative parameters described above and chemical identities, chemical concentrations and indications of which wells were used for positive and negative controls. […] The fold-induction of SMN intensity values for each well treated with a library chemical were normalized to the SMN average intensity in multiple negative control wells per plate.
Since it is not known which form of SMN increase is the most essential, hits that scored in a duplicate at least in two different parameters greater than 1.3 fold at any of the three concentrations were selected (FIG. 19d). […] Further, 220 compounds were screened in the absence of anti-SMN primary antibody with the same assay conditions, to filter out the fluorescent compounds.

SMN [2] = assay: SMN immunofluorescence quantification (cytoplasm, nucleus, GEMs) in fibroblasts from SMA patients; assay type: cell-based, human; conditions: for levels of cytoplasmic and nuclear SMN (in words) / Avg. SMN fold increase: SMA patient fibroblasts; for levels of cytoplasmic and nuclear SMN (in words): substance alone; for decrease of basal level of SMN: added to the regular serum media in which cells are maintained, no added PDGF; for Avg. SMN fold increase: human PDGF isoforms
Protocol: Specifically, fibroblasts from patients suffering from SMA were treated with Ionomycin (a channel modulator), Ouabain (a cardiac glycoside and channel modulator), PDGF, SAHA (an HDAC inhibitor), Lactacystin (a proteasome inhibitor) or WIN 55,212-2 (a cannabinoid receptor […] and GPCR ligand) for 72 hours. The cells were fixed with methanol/acetone and stained with Pharmingen BD antibodies, followed by 488 AlexaFluor staining. Images were obtained with 60× lens on Zeiss LSM510 META on an inverted confocal microscope.
For example, fibroblasts from patients suffering from SMA were treated with Ouabain, Digoxin or Lanatoside at a concentration of 0, 2.5 nM, 5 nM, 10 nM, 20 nM, 40 nM, 80 nM, […] for 72 hours. The cells were fixed with methanol/acetone and stained with Pharmingen BD antibodies, followed by 488 AlexaFluor staining. Images were obtained with 60× lens on Zeiss LSM510 META on an inverted confocal microscope.
An assay was established for high-content evaluation of SMN protein level in different cellular compartments after treatment with small molecules. SMN protein was visualized by immunofluorescent staining and multiple fields from each plate well were scanned by an automated confocal Opera microscope. […] For each well, the algorithm generated quantitative parameters representing number of cells, as well as SMN fluorescent intensity per cell in cytoplasm, nucleus, number and intensity of GEMs (FIG. 15). […] During the assay transfer to the robotic platform fixation with the ice cold methanol was technically limited, therefore to preserve the maximum possible window we chose to perform the screen on parental fibroblast with PFA fixation.
For fibroblast assays, human fibroblasts lines GM09677 (derived from patient with SMA type 1 disease) and GM03814 (derived from unaffected parental SMA carriers) were used (Coriell Cell Repositories). […] For secondary assays cells from GM09677 line were used.
Fibroblasts were grown in MEM media (Invitrogen) supplemented with 5% Fetal Bovine Serum (FBS, Invitrogen), 2 mM glutamine and 1% penicillin-streptomycin (100 U/ml) in a presence of 5% CO2 at 37° C. For drug treatments, cells were plated and treated 24 h later with 10 μM MG132 (Biomol International), […] Calpeptin (Biomol International), 10 mM ammonium chloride, 1 μM myristoylated PKI, or vehicle for the designated times.
(§1) Compounds were stored at appropriate temperature and dissolved accordingly to the manufacturers (Tocris, Enzo, EMD and Sigma-Aldrich) in DMSO (Sigma-Aldrich), unless stated otherwise (Monensin Na in EtOH, DMPQ in water). Growth factors and PDGF neutralizing antibodies (R&D Systems) were reconstituted with buffers recommended by the supplier. For generation of the dose curves, 1×10^3 fibroblasts were plated on to 96-well Greiner Senso plates (VWR) and treated with compounds on the second day then fixed and stained at the indicated time points. For GSK inhibitors and performing p-GSK3b(Ser9) detection, two days after plating growth media containing 5% FBS was replaced to the media with FBS reduced down to 0.5%, to starve cells for 72 hours. Addition of the GSK inhibitors was done in 5% FBS enriched media.

SMN [3] = assay: Inhibition of PDGF-stimulated SMN increase in fibroblasts by kinase/receptor inhibitors; assay type: cell-based, human; conditions: for SMN Cytoplam (inhibition of PDGF-stimulated SMN increase) / SMN GEM Intensity (inhibition of PDGF-stimulated SMN increase) / SMN Nuclear (inhibition of PDGF-stimulated SMN increase): inhibitor at the concentration (nM), fibroblast stimulation with PDGF; for PDGF-stimulated SMN increase in presence of inhibitor (in words): SMA patient fibroblasts, PDGF plus inhibitor or neutralizing antibody; for Cell Number (affected by inhibitor): inhibitor at the concentration of the table row, PDGF stimulated fibroblasts; for PDGF-stimulated SMN increase in the cytoplasm in presence of inhibitor (in words) / PDGF-stimulated SMN increase in the nucleus in presence of inhibitor (in words): pre-treatment with p38 inhibitor
Protocol: Fibroblasts from patients suffering from SMA were treated with PDGF at a concentration of 0, 0.3 ng/ml, 0.63 ng/ml, 1.25 ng/ml, 2.5 ng/ml, 5 ng/ml, 10 ng/ml or 20 ng/ml, in the absence or in the presence of 25 uM DMPQ or 25 uM AG-1296 respectively for 72 hours. The levels of both cytoplasmic and nuclear SMN were detected and quantified using the method described in Example 2.
Fibroblasts from patients suffering from SMA were either control treated or treated with PDGF at a concentration of 0, 0.63 ng/ml, 1.25 ng/ml, 2.5 ng/ml, 5 ng/ml, 10 ng/ml or 20 ng/ml, in the absence or in the presence of 50 uM LY294002 or 2 uM P1-103 respectively for 72 hours. The levels of both cytoplasmic and nuclear SMN were detected and quantified using the method described in Example 2.
Fibroblasts from patients suffering from SMA were either control treated or treated with PDGF at a concentration of 0, 0.63 ng/ml, 1.25 ng/ml, 2.5 ng/ml, 5 ng/ml, 10 ng/ml or 20 ng/ml, in the absence or in the presence of 2 uM Papamycin for 72 hours. The levels of both cytoplasmic and nuclear SMN were detected and quantified using the method described in Example x.
A range of concentrations were tested in order not to miss the effects. SMN level were evaluated by Opera Evoteck in each cellular compartment and to assess the cell numbers that are summarized in the Table 3.
as §1, with “media. As previously described, starvation increases levels of constitutively activate GSK3b kinase, allowing to achieve a more dramatic inhibitory effect when GSK inhibitors are added together with growth factors that are also known to inhibit GSK by Ser-9 phosphorylation. […] For all compounds and growth factors control wells received solvent in amount equivalent to the highest concentration of the compound in a dose curve. For PDGF inhibitory studies, cells were pre-treated with kinase inhibitors for 2 hours and PDGF was added with a fresh kinase inhibitor solution and incubated for an additional 3 days.” for “media.”

`CCCCC/C=C\C/C=C\C/C=C\C/C=C\CCCC(=O)NCCO` [Anandamide] was tested, and the “SMN level in fibroblast screen (increase or decrease)” value (from here on “SMN level … (increase or decrease)”) (SMN [1]) was “increase SMN”.

For `COc1ccc(C[C@H]2NC[C@H](O)[C@H]2OC(C)=O)cc1` [Anysomycin], the “concentration at which SMN level was increased” value (SMN [1]; during screening) was 0.1 µM and the “SMN level … (increase or decrease)” value (SMN [1]) was “increase SMN”.

`COC(=O)C1=C(C)NC(C)=C([N+](=O)[O-])C1c1ccccc1C(F)(F)F` (stereo not shown) [Bay K8644] was tested, and the “levels of cytoplasmic and nuclear SMN (in words)” value (“levels” for short) (SMN [2]) was “not active”.

With `Cc1c[nH]c(-c2cnc(NCCNc3ccc(C#N)cn3)nc2-c2ccc(Cl)cc2Cl)n1` [CHIR99021] the “levels” value (SMN [2]) was “increase SMN levels; also recorded: Most active compounds”.

`CC(=O)C1=C(O)[C@@H]2[C@H]3c4c[nH]c5cccc(c45)C[C@H]3C(C)(C)N2C1=O` [Cyclopiazonic acid] was tested, and the “levels” value (SMN [2]) was “not active”.

`C[C@H]1O[C@@H](O[C@H]2[C@@H](O)C[C@H](O[C@H]3[C@@H](O)C[C@H](O[C@H]4CC[C@@]5(C)[C@H](CC[C@@H]6[C@@H]5C[C@@H](O)[C@]5(C)[C@@H](C7=CC(=O)OC7)CC[C@]65O)C4)O[C@@H]3C)O[C@@H]2C)C[C@H](O)[C@@H]1O` [Digoxin] was tested, and the “SMN level … (increase or decrease)” value (SMN [1]) was “increase SMN”.

In the case of `OCCN(CCO)c1nc(N2CCCCC2)c2nc(N(CCO)CCO)nc(N3CCCCC3)c2n1` [Dipyridamole], the “SMN level … (increase or decrease)” value (SMN [1]) was “increase SMN”.

In the case of `C[C@H]1O[C@@H](O[C@H]2[C@@H](O)C[C@H](O[C@H]3[C@@H](O)C[C@H](O[C@H]4CC[C@@]5(C)[C@H](CC[C@@H]6[C@@H]5CC[C@]5(C)[C@@H](C7=CC(=O)OC7)CC[C@]65O)C4)O[C@@H]3C)O[C@@H]2C)C[C@H](O)[C@@H]1O` [Dititoxin], the “SMN level … (increase or decrease)” value (SMN [1]) was “increase SMN”.

With `O=c1cc(N2CCOCC2)oc2c(-c3ccccc3)cccc12` [LY294002] the “decrease of basal level of SMN” value (SMN [2]) was 40%, the “reduction of SMN” value (SMN [2]; combinatory treatment of 0.5% serum and PI-3 kinase inhibitor, patient cells) was 20% and the “SMN Cytoplam (inhibition of PDGF-stimulated SMN increase)” value (SMN [3]) was 100%. The “SMN GEM Intensity (inhibition of PDGF-stimulated SMN increase)” value (SMN [3]) was 100% and the “SMN Nuclear (inhibition of PDGF-stimulated SMN increase)” value (SMN [3]) was 100%.

`COc1cccc(-c2cc(=O)c3ccccc3o2)c1N` [PD98059] was tested, and the “PDGF-stimulated SMN increase in presence of inhibitor (in words)” value (SMN [3]) was “only partially inhibited”, the “SMN Cytoplam (inhibition of PDGF-stimulated SMN increase)” value (SMN [3]) was 20% and the “SMN GEM Intensity (inhibition of PDGF-stimulated SMN increase)” value (SMN [3]) was 20%. The “SMN Nuclear (inhibition of PDGF-stimulated SMN increase)” value (SMN [3]) was 20% and the “Cell Number (affected by inhibitor)” value (SMN [3]) was “Yes”.

In the case of `CO[C@H]1C[C@@H]2CC[C@@H](C)[C@@](O)(O2)C(=O)C(=O)N2CCCC[C@H]2C(=O)O[C@H]([C@H](C)C[C@@H]2CC[C@@H](O)[C@H](OC)C2)CC(=O)[C@H](C)/C=C(\C)[C@@H](O)[C@@H](OC)C(=O)[C@H](C)C[C@H](C)/C=C/C=C/C=C/1C` [Rapamycin], the “SMN Cytoplam (inhibition of PDGF-stimulated SMN increase)” value (SMN [3]) was 80%, the “SMN GEM Intensity (inhibition of PDGF-stimulated SMN increase)” value (SMN [3]) was 80-100% and the “SMN Nuclear (inhibition of PDGF-stimulated SMN increase)” value (SMN [3]) was 80-100%.

`Oc1ccc(-c2nc(-c3ccc(F)cc3)c(-c3ccncc3)[nH]2)cc1` [SB202190] was tested, and the “SMN Cytoplam (inhibition of PDGF-stimulated SMN increase)” value (SMN [3]) was 20%, the “SMN GEM Intensity (inhibition of PDGF-stimulated SMN increase)” value (SMN [3]) was “some” and the “SMN Nuclear (inhibition of PDGF-stimulated SMN increase)” value (SMN [3]) was 0%. For the same compound, the “Cell Number (affected by inhibitor)” value (SMN [3]) was “Yes”, the “PDGF-stimulated SMN increase in the cytoplasm in presence of inhibitor (in words)” value (SMN [3]) was “able to prevent SMN increase induced by PDGF; also recorded: partial inhibition of SMN in the cytoplasm” and the “PDGF-stimulated SMN increase in the nucleus in presence of inhibitor (in words)” value (SMN [3]) was “not in the nucleus; also recorded: leaving nuclear SMN unaffected”.

With `C[S+]([O-])c1ccc(-c2nc(-c3ccc(F)cc3)c(-c3ccncc3)[nH]2)cc1` (stereo not shown) [SB203580, 4-(4-Fluorophenyl)-2-(4-methylsulfinylphenyl)-5-(4-pyridyl)-1H-imidazole] the “SMN Cytoplam (inhibition of PDGF-stimulated SMN increase)” value (SMN [3]) was 20%, the “SMN GEM Intensity (inhibition of PDGF-stimulated SMN increase)” value (SMN [3]) was “some” and the “SMN Nuclear (inhibition of PDGF-stimulated SMN increase)” value (SMN [3]) was 0%. For the same compound, the “Cell Number (affected by inhibitor)” value (SMN [3]) was “Yes”, the “PDGF-stimulated SMN increase in the cytoplasm in presence of inhibitor (in words)” value (SMN [3]) was “able to prevent SMN increase induced by PDGF; also recorded: partial inhibition of SMN in the cytoplasm” and the “PDGF-stimulated SMN increase in the nucleus in presence of inhibitor (in words)” value (SMN [3]) was “not in the nucleus; also recorded: leaving nuclear SMN unaffected”.

For `CC(=O)O[C@@H]1[C@@H](OC(C)=O)[C@@H](O)[C@H](Oc2c(-c3ccc(O)cc3)oc3cc(O)cc(O)c3c2=O)O[C@H]1C` [SL-0101], the “PDGF-stimulated SMN increase in presence of inhibitor (in words)” value (SMN [3]) was “didn't have an inhibitory effect”, the “SMN Cytoplam (inhibition of PDGF-stimulated SMN increase)” value (SMN [3]) was 20% and the “SMN GEM Intensity (inhibition of PDGF-stimulated SMN increase)” value (SMN [3]) was 20%. The “SMN Nuclear (inhibition of PDGF-stimulated SMN increase)” value (SMN [3]) was 20%.

With `N#CC(=C(/N)Sc1ccccc1N)/C(C#N)=C(\N)Sc1ccccc1N` [U0126] the “PDGF-stimulated SMN increase in presence of inhibitor (in words)” value (SMN [3]) was “only partially inhibited”, the “SMN Cytoplam (inhibition of PDGF-stimulated SMN increase)” value (SMN [3]) was 20-30% ^ and the “SMN GEM Intensity (inhibition of PDGF-stimulated SMN increase)” value (SMN [3]) was 10%. For the same compound, the “SMN Nuclear (inhibition of PDGF-stimulated SMN increase)” value (SMN [3]) was 10% and the “Cell Number (affected by inhibitor)” value (SMN [3]) was “No”.

With DMSO the “decrease of basal level of SMN” value (SMN [2]) was 20%.

“FGF2: fibroblast growth factor, RTK ligand” was tested, and the “levels” value (SMN [2]) was “increases SMN levels” and the “levels” value (SMN [2]; listed as bFGF) was “active”.

With PDGF-AA rec.: recombinant PDGF-AA the “Avg. SMN fold increase” value (SMN [2]) was 1.3-1.4 fold.

In the case of PDGF-AB rec.: recombinant PDGF-AB, the “Avg. SMN fold increase” value (SMN [2]) was 1.7-1.9 fold.

Ryanodine was tested, and the “levels” value (SMN [2]) was “weak effect”.
